{"source": "patent EP0426075A1", "about": "“Benzylpyrrolidine derivatives as dopamine agonists” (SYNTEX (U.S.A.) INC., priority 1989, dated 1991)", "key": {"[1]": {"tested_on": "conscious restrained spontaneously hypertensive rat", "test": "Spontaneous Hypertensive Rats - antihypertensive activity, conscious restrained, oral", "format": "in vivo", "conditions": "for Peak decreases, mean blood pressure / Peak decreases, systolic blood pressure / heart rate following administration / duration of action: SHR, oral; for duration of action: blood pressure decrease; for Diastolic Blood Pressure (mm Hg) / Heart Rate (beats/ min) / Mean Blood Pressure (mm Hg) / Systolic Blood Pressure (mm Hg): change from control (XΔ ± SD), n = 4", "description": "Finally, these compounds were screened for oral antihypertensive activity in the conscious restrained rat. Adult male SHR were instrumented for blood pressure and heart rate measurements under light ether anesthesia. The animals were maintained on a plexiglass restraining board following surgery, and were allowed a 1 hour recovery period prior to the oral administration of the test compounds.\nThe compounds of this invention were screened for oral antihypertensive activity in the conscious restrained spontaneously hypertensive rat.\nMale spontaneously hypertensive rats, SHR/NCrIBr (320-410 g) were fasted overnight. The following morning the left femoral artery and vein of each rat was cannulated under light ether anesthesia. Following surgery, the rats were placed on a rat restraining board and allowed to recover from the effects of the ether for 1 hour. ECG leads were placed on the animal's chest to monitor heart rate. Animals were divided into groups of 4 and dosed with the test compounds.\nBlood pressure and heart rate readings were taken at 5 minute intervals for the first 15 minutes and […] thereafter for a duration of 4 hour post-compound administration. Data was evaluated by two- tailed paired t-tests."}, "DA2 receptor": {"tested_on": "DA2 receptor", "test": "Goldberg in situ femoral arterial preparation (DA2 assay), intra-arterial injection", "format": "in vivo, dog", "conditions": "for ED50: blood flow increase, i.a. bolus into femoral artery, anesthetized dog; for Relative Efficacy to DA2 Standard: optimal response of test compound divided by optimal response of DPDA; for Relative Potency to DA2 Standard: standard (DPDA) ED50 divided by test compound ED50", "description": "(§1) The compounds were subsequently tested following intra-arterial administration in an in situ renal and femoral arterial preparation in the dog, as developed by L.I. Goldberg, to test for DA1 and DA2 dopamine activity, respectively. Details of the methodology are provided in the European J. Pharmacol. 89 :137, 1983, as well as in Hypertension 6 :1-25, 1984.\nas §1, with “compounds of this invention” for “compounds”, “were” for “were subsequently”, “Pharmacol. ,” for “Pharmacol.”, “Hypertension ,” for “Hypertension”, “1984. J. L. McNay, L. I. Goldberg JPET 151 :23-31, 1966.” for “1984.”\n(§2) The compounds were injected directly into the renal or femoral artery for analysis of DA, or DA2 activity, respectively. […] The compounds were tested for relative activity in comparison to the standard DA, agonist, dopamine or the standard DA2 agonist, DPDA. Specific DA, or DA2 activity of the tested compound was verified by Sch 23390 or domperidone blockade.\nAdult mongrel dogs of either sex (12-20 kg) were anesthetized with pentobarbital sodium (33 mg/kg, i.v.). The animals were intubated and ventilated with room air using a Harvard respirator.\nas §1, with “compounds of this invention” for “compounds”, “were” for “were subsequently”, “Pharmacol. ,” for “Pharmacol.”, “Hypertension ,” for “Hypertension”, “1984. J. L. McNay, L. I. Goldberg JPET 151 :23-31, 1966” for “1984.”\nas §2, with “of DA1” for “of DA,”, “standard DA1” for “standard DA,”\nThe thoracic aorta was catheterized with a Millar micro-tip (size 5F) transducer via the right carotid artery for blood pressure monitoring. The right external jugular vein was cannulated with PE-160 tubing for supplemental pentobarbital administration. The left femoral artery was isolated and an electromagnetic flowprobe of the appropriate size (8-11 mm circ.) was placed around the artery and connected to a Caroline Medical electromagnetic flowmeter. Surface ECG leads were placed subcutaneously on the chest and limbs to monitor heart rate. A 25 gauge 3/4\" needle bent 90` , 4 mm from the tip, was placed in the femoral artery proximal to the probe and connected to an infusion pump delivering saline at a constant rate of 1 ml/min. Following a saline and bradykinin challenge (0.02 to 0.04 nmoles, in 0.2 ml saline, i.a.), a dose response curve for DPDA was generated by injecting 4-fold increasing doses i.a. ranging from 3 to 48 nmoles in 0.2 ml saline. Test compounds were injected similarly in 4-fold increasing doses up to 3000 nmoles. Compounds were then repeated at their optimal dose following domperidone pretreatment (10-40 Ilg/kg, iv).\nEfficacy ratios were determined by division of the optimal response of the test compound by the optimal response of the standard agent. The optimal dose of compound was defined as that which produced a maximum increase in blood flow before causing a change in systemic blood pressure. ED50 values were derived by regression analysis from individually generated dose response curves. Potency ratios were the quotients calculated from the division of the standard agent EDso by the ED50 of the test compound. […] If the inhibition of the test compound was similar to that of dopamine or DPDA, the compound was considered to be a DA, or DA2 agonist, respectively."}}, "data": [{"smiles": "Br.Br.CCCN(CCCCCCN1CCC[C@@H]1Cc1ccc(O)c(O)c1)CCc1ccc(O)cc1", "note": "[Test Compound 1, (R)-2-(3,4-dihydroxybenzyl)-1-[6-(N-(4-hydroxyphenethyl)-N-propylamino)hexyl]pyrrolidine dihydrobromide]", "values": [{"measurement": "Peak decreases, mean blood pressure", "setting": "[1]", "result": "about 20%"}, {"measurement": "Peak decreases, systolic blood pressure", "setting": "[1]", "result": "about 20%"}, {"measurement": "heart rate following administration", "setting": "[1]", "result": "not significantly altered"}, {"measurement": "duration of action", "setting": "[1]", "result": "up to 4 hours"}, {"measurement": "ED50", "setting": "DA2 receptor", "result": 0.02, "unit": "nmol"}, {"measurement": "Relative Efficacy to DA2 Standard", "setting": "DA2 receptor", "result": 1.29}, {"measurement": "Relative Potency to DA2 Standard", "setting": "DA2 receptor", "result": 327.50}]}, {"smiles": "Br.Br.CCCN(CCCCCCN1CCC[C@@H]1Cc1ccc(O)c(O)c1)CCc1cccc(O)c1", "note": "[Test Compound 2, (R)-2-(3,4-dihydroxybenzyl)-1-[6-(N-(3-hydroxyphenethyl)-N-propylamino)hexyl]pyrrolidine dihydrobromide]", "values": [{"measurement": "Peak decreases, mean blood pressure", "setting": "[1]", "result": 17, "unit": "%"}, {"measurement": "Peak decreases, systolic blood pressure", "setting": "[1]", "result": 17, "unit": "%"}, {"measurement": "heart rate following administration", "setting": "[1]", "result": "not significantly altered"}, {"measurement": "duration of action", "setting": "[1]", "result": "up to 4 hours"}, {"measurement": "Diastolic Blood Pressure (mm Hg)", "setting": "[1]; po 3 mg/kg, 1 hour", "result": "-8 ± 12", "unit": "mm Hg"}, {"measurement": "Heart Rate (beats/ min)", "setting": "[1]; po 3 mg/kg, 1 hour", "result": "-5 ± 12", "unit": "beats/ min"}, {"measurement": "Mean Blood Pressure (mm Hg)", "setting": "[1]; po 3 mg/kg, 1 hour", "result": "-12 ± 18", "unit": "mm Hg"}, {"measurement": "Systolic Blood Pressure (mm Hg)", "setting": "[1]; po 3 mg/kg, 1 hour", "result": "-13 ± 25", "unit": "mm Hg"}, {"measurement": "Diastolic Blood Pressure (mm Hg)", "setting": "[1]; po 3 mg/kg, 2 hours", "result": "-6 ± 3", "unit": "mm Hg"}, {"measurement": "Heart Rate (beats/ min)", "setting": "[1]; po 3 mg/kg, 2 hours", "result": "5 ± 11", "unit": "beats/ min"}, {"measurement": "Mean Blood Pressure (mm Hg)", "setting": "[1]; po 3 mg/kg, 2 hours", "result": "-7 ± 8", "unit": "mm Hg"}, {"measurement": "Systolic Blood Pressure (mm Hg)", "setting": "[1]; po 3 mg/kg, 2 hours", "result": "-9 ± 13", "unit": "mm Hg"}, {"measurement": "Diastolic Blood Pressure (mm Hg)", "setting": "[1]; po 3 mg/kg, 3 hours", "result": "-4 ± 17", "unit": "mm Hg"}, {"measurement": "Heart Rate (beats/ min)", "setting": "[1]; po 3 mg/kg, 3 hours", "result": "6 ± 18", "unit": "beats/ min"}, {"measurement": "Mean Blood Pressure (mm Hg)", "setting": "[1]; po 3 mg/kg, 3 hours", "result": "-8 ± 14", "unit": "mm Hg"}, {"measurement": "Systolic Blood Pressure (mm Hg)", "setting": "[1]; po 3 mg/kg, 3 hours", "result": "-19 ± 22", "unit": "mm Hg"}, {"measurement": "Diastolic Blood Pressure (mm Hg)", "setting": "[1]; po 3 mg/kg, 4 hours", "result": "-9 ± 7", "unit": "mm Hg"}, {"measurement": "Heart Rate (beats/ min)", "setting": "[1]; po 3 mg/kg, 4 hours", "result": "10 ± 23", "unit": "beats/ min"}, {"measurement": "Systolic Blood Pressure (mm Hg)", "setting": "[1]; po 3 mg/kg, 4 hours", "result": "-29 ± 19", "unit": "mm Hg"}, {"measurement": "Diastolic Blood Pressure (mm Hg)", "setting": "[1]; po 10 mg/kg, 1 hour", "result": "-19 ± 3", "unit": "mm Hg"}, {"measurement": "Heart Rate (beats/ min)", "setting": "[1]; po 10 mg/kg, 1 hour", "result": "-11 ± 6", "unit": "beats/ min"}, {"measurement": "Mean Blood Pressure (mm Hg)", "setting": "[1]; po 10 mg/kg, 1 hour", "result": "-21 ± 3", "unit": "mm Hg"}, {"measurement": "Systolic Blood Pressure (mm Hg)", "setting": "[1]; po 10 mg/kg, 1 hour", "result": "-26 ± 6", "unit": "mm Hg"}, {"measurement": "Diastolic Blood Pressure (mm Hg)", "setting": "[1]; po 10 mg/kg, 2 hours", "result": "-11 ± 21", "unit": "mm Hg"}, {"measurement": "Heart Rate (beats/ min)", "setting": "[1]; po 10 mg/kg, 2 hours", "result": "-6 ± 8", "unit": "beats/ min"}, {"measurement": "Mean Blood Pressure (mm Hg)", "setting": "[1]; po 10 mg/kg, 2 hours", "result": "-21 ± 8", "unit": "mm Hg"}, {"measurement": "Systolic Blood Pressure (mm Hg)", "setting": "[1]; po 10 mg/kg, 2 hours", "result": "-28 ± 10", "unit": "mm Hg"}, {"measurement": "Diastolic Blood Pressure (mm Hg)", "setting": "[1]; po 10 mg/kg, 3 hours", "result": "-19 ± 8", "unit": "mm Hg"}, {"measurement": "Heart Rate (beats/ min)", "setting": "[1]; po 10 mg/kg, 3 hours", "result": "-5 ± 11", "unit": "beats/ min"}, {"measurement": "Mean Blood Pressure (mm Hg)", "setting": "[1]; po 10 mg/kg, 3 hours", "result": "-27 ± 4", "unit": "mm Hg"}, {"measurement": "Systolic Blood Pressure (mm Hg)", "setting": "[1]; po 10 mg/kg, 3 hours", "result": "-36 ± 23", "unit": "mm Hg"}, {"measurement": "Diastolic Blood Pressure (mm Hg)", "setting": "[1]; po 10 mg/kg, 4 hours", "result": "-16 ± 7", "unit": "mm Hg"}, {"measurement": "Heart Rate (beats/ min)", "setting": "[1]; po 10 mg/kg, 4 hours", "result": "1 ± 3", "unit": "beats/ min"}, {"measurement": "Mean Blood Pressure (mm Hg)", "setting": "[1]; po 10 mg/kg, 4 hours", "result": "-22 ± 12", "unit": "mm Hg"}, {"measurement": "Systolic Blood Pressure (mm Hg)", "setting": "[1]; po 10 mg/kg, 4 hours", "result": "-31 ± 20", "unit": "mm Hg"}, {"measurement": "Diastolic Blood Pressure (mm Hg)", "setting": "[1]; po 30 mg/kg, 1 hour", "result": "-6 ± 5", "unit": "mm Hg"}, {"measurement": "Heart Rate (beats/ min)", "setting": "[1]; po 30 mg/kg, 1 hour", "result": "-1 ± 10", "unit": "beats/ min"}, {"measurement": "Mean Blood Pressure (mm Hg)", "setting": "[1]; po 30 mg/kg, 1 hour", "result": "-5 ± 9", "unit": "mm Hg"}, {"measurement": "Systolic Blood Pressure (mm Hg)", "setting": "[1]; po 30 mg/kg, 1 hour", "result": "-4 ± 14", "unit": "mm Hg"}, {"measurement": "Diastolic Blood Pressure (mm Hg)", "setting": "[1]; po 30 mg/kg, 2 hours", "result": "-17 ± 6", "unit": "mm Hg"}, {"measurement": "Heart Rate (beats/ min)", "setting": "[1]; po 30 mg/kg, 2 hours", "result": "9 ± 10", "unit": "beats/ min"}, {"measurement": "Mean Blood Pressure (mm Hg)", "setting": "[1]; po 30 mg/kg, 2 hours", "result": "-14 ± 14", "unit": "mm Hg"}, {"measurement": "Systolic Blood Pressure (mm Hg)", "setting": "[1]; po 30 mg/kg, 2 hours", "result": "-18 ± 10", "unit": "mm Hg"}, {"measurement": "Diastolic Blood Pressure (mm Hg)", "setting": "[1]; po 30 mg/kg, 3 hours", "result": "-15 ± 5", "unit": "mm Hg"}, {"measurement": "Heart Rate (beats/ min)", "setting": "[1]; po 30 mg/kg, 3 hours", "result": "18 ± 15", "unit": "beats/ min"}, {"measurement": "Mean Blood Pressure (mm Hg)", "setting": "[1]; po 30 mg/kg, 3 hours", "result": "-17 ± 11", "unit": "mm Hg"}, {"measurement": "Systolic Blood Pressure (mm Hg)", "setting": "[1]; po 30 mg/kg, 3 hours", "result": "-26 ± 17", "unit": "mm Hg"}, {"measurement": "Diastolic Blood Pressure (mm Hg)", "setting": "[1]; po 30 mg/kg, 4 hours", "result": "-20 ± 9", "unit": "mm Hg"}, {"measurement": "Heart Rate (beats/ min)", "setting": "[1]; po 30 mg/kg, 4 hours", "result": "20 ± 16", "unit": "beats/ min"}, {"measurement": "Systolic Blood Pressure (mm Hg)", "setting": "[1]; po 30 mg/kg, 4 hours", "result": "-32 ± 20", "unit": "mm Hg"}, {"measurement": "ED50", "setting": "DA2 receptor", "result": 0.04, "unit": "nmol"}, {"measurement": "Relative Efficacy to DA2 Standard", "setting": "DA2 receptor", "result": 1.26}, {"measurement": "Relative Potency to DA2 Standard", "setting": "DA2 receptor", "result": 216.00}]}]}
